In ChEMBL document CHEMBL4425188, “Synthesis and immunostimulatory activity of substituted TLR7 agonists” (Bioorg Med Chem Lett, 2016):
Calls of active or inactive are those of the source. The rule behind the calls is not given here.

How the values were obtained:
[1] = tested on: B cell; assay: Immunostimulatory activity in CFSE-labeled human B cells assessed as TLR7 agonist-induced cell proliferation after 6 days by FACS analysis; type: functional, cell-based; details: 144 h
[2] = tested on: HEK293; assay: Induction of SEAP reporter gene expression in TLR-deficient HEK293 cells at 5 to 1000 ng/ml; type: functional, cell-based; details: Homo sapiens
[3] = target: T1, Toll-like receptor 9 (Homo sapiens) (UniProt Q9NR96); assay: Agonist activity at human TLR9 expressed in HEK293 cells at 5 to 1000 ng/ml by QUANTI-blue SEAP reporter gene assay; type: cell-based
T1 sequence (whole entry): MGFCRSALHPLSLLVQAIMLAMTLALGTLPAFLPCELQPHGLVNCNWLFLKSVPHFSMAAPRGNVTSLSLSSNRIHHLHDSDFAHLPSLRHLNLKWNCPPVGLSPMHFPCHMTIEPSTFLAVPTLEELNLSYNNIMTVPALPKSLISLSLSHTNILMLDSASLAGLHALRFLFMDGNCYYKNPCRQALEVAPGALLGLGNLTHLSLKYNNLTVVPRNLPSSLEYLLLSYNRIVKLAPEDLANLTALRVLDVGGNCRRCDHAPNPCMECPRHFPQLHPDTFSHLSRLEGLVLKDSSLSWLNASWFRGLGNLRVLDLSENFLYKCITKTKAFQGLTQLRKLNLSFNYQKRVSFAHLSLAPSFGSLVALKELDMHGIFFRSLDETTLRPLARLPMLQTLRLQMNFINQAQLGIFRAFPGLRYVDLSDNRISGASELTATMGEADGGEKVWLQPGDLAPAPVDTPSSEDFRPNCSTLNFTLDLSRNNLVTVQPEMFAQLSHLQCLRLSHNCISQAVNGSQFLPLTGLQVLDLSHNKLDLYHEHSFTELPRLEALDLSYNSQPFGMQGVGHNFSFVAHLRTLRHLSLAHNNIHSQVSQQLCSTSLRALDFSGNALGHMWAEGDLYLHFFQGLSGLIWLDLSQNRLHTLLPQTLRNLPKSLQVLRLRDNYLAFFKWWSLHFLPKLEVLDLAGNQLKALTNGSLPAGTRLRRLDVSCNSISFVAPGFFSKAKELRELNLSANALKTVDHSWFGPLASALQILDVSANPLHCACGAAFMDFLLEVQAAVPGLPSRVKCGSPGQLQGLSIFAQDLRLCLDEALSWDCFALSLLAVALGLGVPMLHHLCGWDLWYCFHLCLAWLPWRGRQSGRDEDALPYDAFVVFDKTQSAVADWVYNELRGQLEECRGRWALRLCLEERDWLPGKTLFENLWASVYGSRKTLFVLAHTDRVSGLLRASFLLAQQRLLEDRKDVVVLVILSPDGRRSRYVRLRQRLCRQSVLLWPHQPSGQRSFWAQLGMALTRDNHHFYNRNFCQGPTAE

[4] = target: T2, Toll-like receptor 7 (Homo sapiens) (UniProt Q9NYK1); assay: Agonist activity at human TLR7 expressed in HEK293 cells at <= 50 ng/ml by QUANTI-blue SEAP reporter gene assay; type: cell-based
T2 sequence (whole entry): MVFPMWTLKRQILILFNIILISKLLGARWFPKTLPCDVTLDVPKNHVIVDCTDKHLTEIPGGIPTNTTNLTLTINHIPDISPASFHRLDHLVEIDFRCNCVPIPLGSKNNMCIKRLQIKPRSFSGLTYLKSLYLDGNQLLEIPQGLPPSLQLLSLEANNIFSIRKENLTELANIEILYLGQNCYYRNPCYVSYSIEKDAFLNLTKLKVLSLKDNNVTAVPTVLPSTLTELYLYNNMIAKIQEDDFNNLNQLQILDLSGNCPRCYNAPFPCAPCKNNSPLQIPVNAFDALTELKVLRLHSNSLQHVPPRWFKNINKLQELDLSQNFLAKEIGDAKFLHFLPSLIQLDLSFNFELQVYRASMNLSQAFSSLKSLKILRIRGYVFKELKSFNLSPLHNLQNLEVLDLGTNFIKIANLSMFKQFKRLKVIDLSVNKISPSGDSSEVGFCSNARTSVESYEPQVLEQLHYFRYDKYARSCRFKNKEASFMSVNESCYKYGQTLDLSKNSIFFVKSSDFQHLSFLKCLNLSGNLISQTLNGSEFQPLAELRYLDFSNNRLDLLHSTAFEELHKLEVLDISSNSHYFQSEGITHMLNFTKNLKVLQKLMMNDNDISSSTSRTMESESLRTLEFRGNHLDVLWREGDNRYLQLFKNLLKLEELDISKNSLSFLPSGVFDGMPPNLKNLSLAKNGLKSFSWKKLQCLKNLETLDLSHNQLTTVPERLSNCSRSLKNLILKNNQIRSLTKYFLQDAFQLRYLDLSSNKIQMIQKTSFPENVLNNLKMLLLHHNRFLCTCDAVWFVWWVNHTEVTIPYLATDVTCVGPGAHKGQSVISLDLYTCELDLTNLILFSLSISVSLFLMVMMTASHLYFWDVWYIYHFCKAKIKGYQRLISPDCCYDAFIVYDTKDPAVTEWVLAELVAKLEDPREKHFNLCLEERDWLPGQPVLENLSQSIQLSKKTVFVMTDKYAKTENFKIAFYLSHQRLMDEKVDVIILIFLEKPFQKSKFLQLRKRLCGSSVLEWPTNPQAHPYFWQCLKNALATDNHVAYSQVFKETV

[5] = tested on: T-cell; assay: Immunostimulatory activity in CFSE-labeled human T cells assessed as TLR7 agonist-induced cell proliferation at 2 to 200 nM after 6 days by FACS analysis; type: functional, cell-based
[6] = organism: Homo sapiens; assay: Immunostimulatory activity in CFSE-labeled human NK cells assessed as TLR7 agonist-induced cell proliferation at 2 to 200 nM after 6 days by FACS analysis; type: functional
[7] = target: T3, Toll-like receptor 8 (Homo sapiens) (UniProt Q9NR97); assay: Agonist activity at human TLR8 expressed in HEK293 cells at 5 to 1000 ng/ml by QUANTI-blue SEAP reporter gene assay; type: cell-based
T3 sequence (whole entry): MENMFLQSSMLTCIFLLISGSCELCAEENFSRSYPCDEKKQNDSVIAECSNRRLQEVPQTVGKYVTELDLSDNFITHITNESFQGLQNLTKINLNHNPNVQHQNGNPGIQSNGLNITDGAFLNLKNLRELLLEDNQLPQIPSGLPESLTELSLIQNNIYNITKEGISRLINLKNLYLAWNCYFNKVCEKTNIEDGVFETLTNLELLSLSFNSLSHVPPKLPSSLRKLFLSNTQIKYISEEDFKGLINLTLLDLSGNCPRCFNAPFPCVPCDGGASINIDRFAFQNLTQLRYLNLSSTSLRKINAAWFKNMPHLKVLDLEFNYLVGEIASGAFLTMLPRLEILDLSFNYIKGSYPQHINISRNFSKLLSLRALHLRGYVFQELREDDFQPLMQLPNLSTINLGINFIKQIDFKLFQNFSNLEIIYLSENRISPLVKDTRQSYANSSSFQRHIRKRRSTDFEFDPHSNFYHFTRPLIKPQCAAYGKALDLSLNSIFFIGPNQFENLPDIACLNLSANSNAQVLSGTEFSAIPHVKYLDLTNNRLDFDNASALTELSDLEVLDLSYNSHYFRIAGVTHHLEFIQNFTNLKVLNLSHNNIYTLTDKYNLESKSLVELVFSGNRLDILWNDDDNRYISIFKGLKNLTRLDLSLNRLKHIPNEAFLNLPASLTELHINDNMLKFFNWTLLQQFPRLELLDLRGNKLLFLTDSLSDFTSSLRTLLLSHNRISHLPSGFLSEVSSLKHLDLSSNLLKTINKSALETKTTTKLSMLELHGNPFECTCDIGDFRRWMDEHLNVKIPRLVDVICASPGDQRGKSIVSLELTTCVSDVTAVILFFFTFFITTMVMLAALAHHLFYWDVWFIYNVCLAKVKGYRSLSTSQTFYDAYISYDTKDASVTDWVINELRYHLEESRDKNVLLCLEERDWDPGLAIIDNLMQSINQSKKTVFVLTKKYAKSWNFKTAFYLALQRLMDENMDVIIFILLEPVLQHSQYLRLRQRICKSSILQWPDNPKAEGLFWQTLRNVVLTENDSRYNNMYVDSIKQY

[8] = target: T2, Toll-like receptor 7 (Homo sapiens); assay: Agonist activity at human TLR7 expressed in HEK293 cells at 1 ng/ml by QUANTI-blue SEAP reporter gene assay; type: cell-based

Row | SMILES | EC50 [1] [nM] | Activity [2] | Activity [3] | Activity [4] | Activity [5] | Activity [6] | Activity [7] | Activity [8]
1 | CCCCOc1nc(N)c2nc(O)n(Cc3ccc(C(=O)NCCOCCOCCN)cc3)c2n1 | 26 | inactive | inactive | Active | inactive | inactive | inactive | –
2 | CCCCOc1nc(N)c2nc(O)n(Cc3ccc(C(=O)NCCOCCOCCNC(=O)CCC(=O)N4Cc5ccccc5C#Cc5ccccc54)cc3)c2n1 | – | inactive | inactive | Active | – | – | inactive | –
3 | CCCCOc1nc(N)c2nc(O)n(Cc3ccc(C(=O)NCCCCN)cc3)c2n1 | 47.4 | inactive | inactive | Active | inactive | inactive | inactive | inactive
4 | CCCCOc1nc(N)c2nc(SCC(=O)OC(C)(C)C)n(Cc3ccccc3)c2n1 | – | inactive | inactive | – | – | – | inactive | inactive
5 | CCCCOc1nc(N)c2nc(SCC(=O)O)n(Cc3ccccc3)c2n1 | – | inactive | inactive | – | – | – | inactive | inactive
6 | CCCCOc1nc(N)c2nc(SCc3ccc(C#N)cc3)n(Cc3ccccc3)c2n1 | – | inactive | inactive | – | – | – | inactive | inactive
7 | CCCCOc1nc(N)c2c(n1)n(Cc1ccccc1)c(=O)n2Cc1ccccc1 | – | inactive | inactive | – | – | – | inactive | inactive
8 | CCCCOc1nc(N)c2nc(SCc3ccc(Br)cc3)n(Cc3ccccc3)c2n1 | – | inactive | inactive | – | – | – | inactive | inactive
9 | CCCCOc1nc(N)c2nc(O)n(Cc3ccc(CCCN)cc3)c2n1 | – | inactive | inactive | Active | – | – | inactive | –
10 | CCCCOc1nc(N)c2nc(O)n(Cc3ccc(C#CCN)cc3)c2n1 | – | inactive | inactive | Active | – | – | inactive | –
11 | CCCCOc1nc(N)c2nc(S)n(Cc3ccccc3)c2n1 | 2690 | inactive | inactive | Active | inactive | inactive | inactive | –
12 | CCCCOc1nc(N)c2nc(O)n(Cc3ccc(C(=O)NCCN)cc3)c2n1 | 52.4 | inactive | inactive | Active | inactive | inactive | inactive | –
13 | CCCCOc1nc(N)c2nc(NCC)n(Cc3ccccc3)c2n1 | – | inactive | inactive | – | – | – | inactive | –
14 | CCCCOc1nc(N)c2nc(SCc3ccccc3)n(Cc3ccccc3)c2n1 | – | inactive | inactive | – | – | – | inactive | inactive
15 | CCCCOc1nc(N)c2nc(O)n(Cc3ccc(C#CCO)cc3)c2n1 | 58.3 | inactive | inactive | Active | inactive | inactive | inactive | –
16 | CCCCOc1nc(N)c2nc(O)n(Cc3ccc(C(=O)O)cc3)c2n1 | 480 | inactive | inactive | Active | inactive | inactive | inactive | –
17 | CCCCOc1nc(N)c2nc(SCCCCSc3nc4c(N)nc(OCCCC)nc4n3Cc3ccccc3)n(Cc3ccccc3)c2n1 | – | inactive | inactive | – | – | – | inactive | inactive
18 | CCCCOc1nc(N)c2nc(O)n(Cc3ccc(I)cc3)c2n1 | 126 | inactive | inactive | Active | inactive | inactive | inactive | –
19 | CCCCOc1nc(N)c2nc(OCc3ccccc3)n(Cc3ccccc3)c2n1 | – | inactive | inactive | – | – | – | inactive | inactive
